# Data from paper PMC6792352, “Limited Chemical Structural Diversity Found to Modulate Thyroid Hormone Receptor in the Tox21 Chemical Library” (Environmental Health Perspectives, 2019).
# Where a name gives a salt, the structure may show the parent alone.
# Assay: in vitro
# Conditions: rat, gh3-tre-luc cells, AC50 (uM) modified / 1000
row,SMILES,CC50 at 24 h
1,O=C(O)CNC(=O)c1ccccc1 [Hippuric acid],> 50 µM
2,CCCCCCCCCC(C)=O [2-Undecanone],> 90 µM
3,c1cc(CN2CCCCC2)cc(OCCCNc2nc3ccccc3s2)c1 [Zolantidine dimaleate],8.26 µM
4,C[C@H]1[C@H](O)O[C@@H]2O[C@@]3(C)CC[C@H]4[C@H](C)CC[C@@H]1[C@@]24OO3 [Artenimol],1.39 µM
5,"COC(C)(C)OC [2,2-Dimethoxypropane]",> 90 µM
6,O=C(O)[C@@H](O)[C@H](O)[C@H](O)[C@@H](O)C(=O)O [Mucic acid],> 50 µM
7,"Cc1ccc(N(C)C)cc1 [N,N,4-Trimethylaniline]",> 90 µM
8,CC1=CCC(=C(C)C)CC1 [Terpinolene],> 90 µM
9,O=C1C(O)=C(O)C(=O)C(O)=C1O [Tetroquinone],> 50 µM
10,COc1ccc(/C=C/C(=O)c2ccc(OC)cc2OC)cc1 [Metochalcone],46.1 µM
11,Oc1cc2ccccc2c2ccccc12 [9-Phenanthrol],6.81 µM
12,"CCOC(=O)CS [Acetic acid,mercapto-,ethylester]",> 90 µM
13,CNC(=O)Oc1cccc2c1OC(C)(C)C2 [Carbofuran],> 90 µM
14,CCN(Cc1cccc(S(=O)(=O)O)c1)c1ccc(C(=C2C=CC(=[N+](CC)Cc3cccc(S(=O)(=O)O)c3)C=C2)c2ccc(O)cc2S(=O)(=O)[O-])cc1 [FD&C Green No. 3],41.3 µM
15,C=C(C)C(=O)OCCNC(C)(C)C [2-(tert-Butylamino)ethyl 2-methylprop-2-enoate],> 90 µM
16,CCCc1ccc(C(=O)O)cc1 [4-Propylbenzoic acid],> 50 µM
17,CCCCCC/C(C=O)=C\c1ccccc1 [Hexyl cinnamic aldehyde],> 90 µM
18,CC(Oc1ccc(Oc2ncc(C(F)(F)F)cc2Cl)cc1)C(=O)O (stereo not shown) [Haloxyfop],> 90 µM
19,"CCC(C)(O)CCC=C(C)C (stereo not shown) [3,7-Dimethyloct-6-en-3-ol]",> 90 µM
20,COC(=O)[C@H]1[C@H]2C[C@@H]3c4[nH]c5cc(OC)ccc5c4CCN3C[C@H]2C[C@@H](OC(=O)/C=C/c2cc(OC)c(OC)c(OC)c2)[C@@H]1OC [Rescinnamine],> 20 µM
21,"NCCCN(CCO)CCO [2,2'-[(3-Aminopropyl)imino]diethanol]",> 90 µM
22,CCCCCCCCN1CCCC1=O [1-Octyl-2-pyrrolidone],> 90 µM
23,"CC(C)CCCC(C)CC=O (stereo not shown) [3,7-Dimethyloctanal]",> 90 µM
24,"O=[N+]([O-])c1cccc(Cl)c1Cl [2,3-Dichloronitrobenzene]",> 90 µM
25,CCn1c2ccccc2c2cc(N)ccc21 [3-Amino-9-ethylcarbazole hydrochloride],> 90 µM

row,SMILES,CC50 at 24 h
1,COc1ccccc1N [2-Methoxyaniline hydrochloride],> 90 µM
2,C=Cc1ccccc1 [Styrene],> 90 µM
3,C=CC(=C)CC/C=C(\C)CC/C=C(/C)C=O [Orange terpenes],42.9 µM
4,CCCCCCOC(=O)C(C)CC (stereo not shown) [Hexyl 2-methylbutanoate],> 90 µM
5,CCN(CC)CCOC(=O)C(c1ccccc1)c1ccccc1 [Adiphenine hydrochloride],43.3 µM
6,O=[N+]([O-])c1ccc(O/N=C/c2cc(Br)c(O)c(Br)c2)c([N+](=O)[O-])c1 [Bromofenoxim],26 µM
7,"Cc1ccc(NC=O)c(C)c1 [N-(2,4-Dimethylphenyl)formamide]",> 90 µM
8,CC/C=C\CCCCCO [(6Z)-Non-6-en-1-ol],> 90 µM
9,CC1(C)S[C@@H]2[C@H](NC(=O)Cc3ccccc3)C(=O)N2[C@H]1C(=O)O [Penicillin G potassium],> 50 µM
10,CC[C@H](C)C(=O)O[C@H]1C[C@H](O)C=C2C=C[C@H](C)[C@H](CC[C@@H](O)C[C@@H](O)CC(=O)O)[C@H]21 [Pravastatin sodium],> 90 µM
11,CCCCCCC/C=C/C=O [(2E)-2-Decenal],> 90 µM
12,O=C(O)c1cc(=O)c2ccccc2o1 [Chromocarb],> 50 µM
13,"Nc1c2ccccc2nc2ccccc12 [9-Aminoacridine, monohydrochloride, monohydrate]",> 90 µM
14,CCC(C)(C)C1CCC(OC)CC1 (stereo not shown) [1-Methoxy-4-tert-pentylcyclohexane],> 90 µM
15,CC(=O)CCc1ccc(O)cc1 [4-(4-Hydroxyphenyl)butan-2-one],> 90 µM
16,O=S(=O)(O)c1ccc(Nc2nc(Nc3ccc(/C=C/c4ccc(Nc5nc(Nc6ccc(S(=O)(=O)O)cc6)nc(N(CCO)CCO)n5)cc4S(=O)(=O)O)c(S(=O)(=O)O)c3)nc(N(CCO)CCO)n2)cc1 [C.I. Fluorescent Brightener 220],> 60 µM
17,C[N+](C)(C)CC(O)CC(=O)[O-] (stereo not shown) [Carnitine hydrochloride],> 50 µM
18,CCCCCCCCCCCC[n+]1ccc2ccccc2c1 [2-Dodecylisoquinolinium tosylate],5.61 µM
19,C=CCOC(=O)c1ccccc1C(=O)OCC=C [Diallyl phthalate],> 90 µM
20,"C[N+](C)(C)CCCCCC[N+](C)(C)C [N,N,N,N',N',N'-Hexamethylhexane-1,6-diaminium]",> 50 µM
21,C=CC(=O)OCC(CO)(COCC(COC(=O)C=C)(COC(=O)C=C)COC(=O)C=C)COC(=O)C=C [Dipentaerythritol pentaacrylate],1.74 µM
22,C[Si](Cn1cncn1)(c1ccc(F)cc1)c1ccc(F)cc1 [Flusilazole],> 90 µM
23,"COC(=O)CCSCCC(=O)OC [Dimethyl 3,3'-thiodipropionate]",> 90 µM
24,CCC[N+]1(C)CCCC1 [1-Methyl-1-propylpyrrolidinium bromide],> 90 µM
25,CCC1COC(=O)O1 (stereo not shown) [Butylene carbonate],> 90 µM

row,SMILES,CC50 at 24 h
1,NCCNCCN [Diethylenetriamine],> 90 µM
2,Cc1oc2c(NC(=O)c3c(Cl)cccc3Cl)cccc2c1C(C)(C)O [FR167356],19.6 µM
3,"CCCOC(=O)C(C)O (stereo not shown) [Propanoic acid,2-hydroxy-,propylester]",> 90 µM
4,CC1(C)OC[C@@H](COC(=O)CCc2ccc(OC[C@@H](O)CNCCNC(=O)N3CCOCC3)cc2)O1 [Landiolol hydrochloride],> 50 µM
5,"NCCOCCOCCN [2,2'-[Ethane-1,2-diylbis(oxy)]diethanamine]",> 90 µM
6,C=CCCCCCCCCCCC [1-Tridecene],> 5 µM
7,"CCCCCCCCCCCCCCCCCC(=O)OCC(C)O (stereo not shown) [Octadecanoic acid, monoester with 1,2-propanediol]",20.7 µM
8,CCO[Si](OCC)(OCC)c1ccccc1 [Triethoxy(phenyl)silane],> 90 µM
9,CC/C=C\C/C=C\C/C=C\CCCCCCCC(=O)O [Linolenic acid],> 90 µM
10,O=C(c1ccc(OCCN2CCCCC2)cc1)c1c(-c2ccc(O)cc2)sc2cc(O)ccc12 [Raloxifene],3.84 µM
11,CC[C@H]1CC[C@H](NCc2cc3c(cc2OC)[C@H]2C[C@H]2C(=O)N3C)[C@H](c2ccccc2)N1 [CP-728663],35.3 µM
12,CC(C)=CCC[C@H](C)CCO [(S)-(-)-beta-Citronellol],> 90 µM
13,CCCCN(CC)C(=O)SCCC [Pebulate],> 90 µM
14,CCCCCCCCCCCC(C)=O [2-Tridecanone],> 90 µM
15,CC1(C)[C@H](C(=O)O)N2C(=O)C[C@H]2S1(=O)=O [Sulbactam],> 50 µM
16,"O=C(O)c1cccc(C(=O)O)c1 [1,3-Benzenedicarboxylic acid]",> 90 µM
17,CCCC(=O)C(CC)Sc1ccoc1C (stereo not shown) [3-(2-Methyl-3-furylthio)-4-heptanone],> 90 µM
18,CN(C)[C@@H]1C(O)=C(C(N)=O)C(=O)[C@@]2(O)C(O)=C3C(=O)c4c(O)ccc(Cl)c4[C@@H](O)[C@H]3C[C@@H]12 [Demeclocycline hydrochloride],> 50 µM
19,CCCOC(C)=O [Propyl acetate],> 90 µM
20,N[C@@H](CSCCCO)C(=O)O [Fudosteine],> 50 µM
21,CCCSP(=O)(OCC)SCCC [Ethoprop],> 90 µM
22,CC1(C)[C@H]2CC[C@]1(C)[C@H](O)C2 [[(1S)-endo]-(-)-Borneol],> 90 µM
23,"O=C(N=NC(=O)OCc1ccccc1)OCc1ccccc1 [Dibenzyl diazene-1,2-dicarboxylate]",> 90 µM
24,"C[Si]1(C)N[Si](C)(C)N[Si](C)(C)N1 [2,2,4,4,6,6-Hexamethyl-1,3,5,2,4,6-triazatrisilinane]",> 90 µM

# Same assay, conditions: rat, gh3-tre-luc cells, AC50 (uM) modified / 1000, Tox21_110001=Tox21_110352; viability, 1 nM T3 present, 24 h
row,SMILES,CC50 at 24 h
1,CCC1(C)CC(=O)NC(=O)C1 [Bemegride],> 20 µM

# Same assay, conditions: rat, gh3-tre-luc cells, AC50 (uM) modified / 1000, Tox21_110001=Tox21_110991; viability, 1 nM T3 present, 24 h
row,SMILES,CC50 at 24 h
1,CCC1(c2ccccc2)C(=O)N(COC)C(=O)N(COC)C1=O [Eterobarb],> 50 µM

# Same assay, conditions: rat, gh3-tre-luc cells, AC50 (uM) modified / 1000, Tox21_110001=Tox21_111517; viability, 1 nM T3 present, 24 h
row,SMILES,CC50 at 24 h
1,C=CCC1(C(C)CCC)C(=O)N=C(S)NC1=O (stereo not shown) [Thiamylal sodium],> 50 µM

# Same assay, conditions: rat, gh3-tre-luc cells, AC50 (uM) modified / 1000, Tox21_110001=Tox21_112509; viability, 1 nM T3 present, 24 h
row,SMILES,CC50 at 24 h
1,NC1=NC(=O)C(c2ccccc2)O1 (stereo not shown) [Pemoline],> 50 µM

# Same assay, conditions: rat, gh3-tre-luc cells, AC50 (uM) modified / 1000, Tox21_110001=Tox21_113116; viability, 1 nM T3 present, 24 h
row,SMILES,CC50 at 24 h
1,C[C@]12CC[C@H]3[C@@H](CCC4=CC(=O)CC[C@@]43C)[C@@H]1CC[C@@H]2OC(=O)CCc1ccccc1 [Testosterone 17-phenylpropionate],> 90 µM

# Same assay, conditions: rat, gh3-tre-luc cells, AC50 (uM) modified / 1000, Tox21_110001=Tox21_200778; viability, 1 nM T3 present, 24 h
row,SMILES,CC50 at 24 h
1,O=C(Cl)C(Cl)Cl [Dichloroacetyl chloride],> 90 µM

# Same assay, conditions: rat, gh3-tre-luc cells, AC50 (uM) modified / 1000, Tox21_110001=Tox21_300175; viability, 1 nM T3 present, 24 h
row,SMILES,CC50 at 24 h
1,CCOP(=S)(OCC)SCSP(=S)(OCC)OCC [Ethion],> 90 µM

# Same assay, conditions: rat, gh3-tre-luc cells, AC50 (uM) modified / 1000, Tox21_110001=Tox21_301184; viability, 1 nM T3 present, 24 h
row,SMILES,CC50 at 24 h
1,COc1cc(OC)nc(NC(=O)NS(=O)(=O)c2ncccc2OCC(F)(F)F)n1 [Trifloxysulfuron-sodium],> 90 µM
